According to paper PMC4229385 (Circulation, 2014):

Target: V1AR (AVP type 1A receptor) (Homo sapiens, UniProt P37288)
Assay: DAGR FRET assay, block of AVP-induced DAG generation at […]
Format: cell-based

V1AR (AVP type 1A receptor), sequence (P37288 whole entry): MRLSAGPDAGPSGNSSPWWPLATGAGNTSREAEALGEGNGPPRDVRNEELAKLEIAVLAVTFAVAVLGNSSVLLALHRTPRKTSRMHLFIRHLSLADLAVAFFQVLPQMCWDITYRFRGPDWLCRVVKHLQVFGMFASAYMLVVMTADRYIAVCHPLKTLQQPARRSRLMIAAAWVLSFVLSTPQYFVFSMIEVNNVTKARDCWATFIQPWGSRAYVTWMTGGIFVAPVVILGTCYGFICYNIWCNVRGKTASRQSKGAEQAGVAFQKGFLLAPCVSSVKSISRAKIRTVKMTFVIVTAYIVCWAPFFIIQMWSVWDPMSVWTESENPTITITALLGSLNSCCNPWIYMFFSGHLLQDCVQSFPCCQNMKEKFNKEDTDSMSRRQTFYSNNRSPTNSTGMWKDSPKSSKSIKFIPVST

Compound: COc1ccc(S(=O)(=O)N2c3ccc(Cl)cc3[C@](O)(c3ccccc3Cl)[C@@H]2C(=O)N2CCC[C@H]2C(N)=O)cc1OC [SR 49059]
- DAGR FRET assay, block of AVP-induced DAG generation at 10 μM: it completely blocked AVP-dependent DAG production (Fig. 4E)
